# Key:
# [1] = tested on: CD8+ T cells responsive to OVA; assay: SIINFEKL pentamer assay, percentage of OVA-specific CD8+ T cells; type: in vivo, mouse; settings: IM, days 0 and 14, blood day 21
# Protocol: To verify the results obtained using the in vivo cytotoxicity assay described in the Examples above, similar experiments were performed and CD8+ T cell activation was determined by measuring the percentage of OVA-specific CD8+ T cells using a pentamer assay. Briefly, mice were injected intramuscularly with the indicated amounts of OVA and test adjuvant compound at either 1 μg or 100 ng per mouse, respectively on day 0 as follows:
# Experiment A: • Group 1: 100 μl of PBS; • Group 2: 50 μg of Ova into 100 μl PBS; • Group 3: 50 μg of Ova with 1 μg αGalCer; • Group 4: 50 μg of Ova with 1 μg PBS-11 • Group 5: 50 μg of Ova with 1 μg PBS-14 • Group 6: 50 μg of Ova with […] PBS-57 • Group 7: 50 μg of Ova with 1 μg PBS-96
# Experiment B: • Group 1: 100 μl of PBS; • Group 2: 50 μg of Ova into 100 μl PBS; • Group 3: 50 μg of Ova with 100 ng αGalCer; • Group 4: 50 μg of Ova with 100 ng PBS-11 • Group 5: 50 μg of Ova with 100 ng PBS-14 • Group 6: 50 μg of Ova with 100 ng PBS-57 • Group 7: […] of Ova with 100 ng PBS-96 A second injection was administered to the mice on day 14 and blood was collected from the mice on day 21. The lymphocytes were collected and analyzed by FACS analysis using H-2K^b SIINFEKL pentamer and CD8 antibody to detect CD8+ T cells responsive to OVA.
# [2] = tested on: Ova-specific target cells; assay: in vivo specific cytotoxic T cell (CD8+) response, specific lysis of Ova-specific target cells; parameters: species or system mouse; settings: for percentage of specific lysis of the target cells by CD8+ T cells: Example 5 Experiment B, FIG. 8, 50 μg OVA with 10 ng adjuvant; for percentage of specific lysis of the target cells by CD8+ T cells / average OVA-specific cytotoxic response (percent specific lysis) / enhancement of the CD8+ T cell response at low doses (specific lysis): IM; for percentage of specific lysis of the target cells by CD8+ T cells / average Ova-specific cytotoxic response (percent specific lysis) / average OVA-specific cytotoxic response (percent specific lysis): blood day 11; for specific lysis of Ova-specific target cells in blood: Example 1, FIG. 1, 1 μg adjuvant with 50 μg Ova, day 0, target cells day 10, read day 11; for specific lysis of Ova-specific target cells in blood / average Ova-specific cytotoxic response (percent specific lysis): IV; for average Ova-specific cytotoxic response (percent specific lysis): Example 2, FIG. 2; for average Ova-specific cytotoxic response (percent specific lysis) / average OVA-specific cytotoxic response (percent specific lysis): 400 μg Ova with or without 1 μg adjuvant; for average OVA-specific cytotoxic response (percent specific lysis): Example 2, FIG. 3; for enhancement of the CD8+ T cell response at low doses (specific lysis): Example 5, FIGS. 7 and 8, 50 μg OVA with 100 ng or 10 ng adjuvant
# OVA-specific IgG2a = OVA-specific IgG2a ELISA after intramuscular immunization; type: in vivo, mouse; settings: FIG. 12; IM, 50 μg OVA with 100 ng adjuvant, 14 days post-injection
# Protocol: Mice (6 per group) were injected intramuscularly with 50 μg of OVA either alone or in combination with 100 ng of the indicated adjuvants (Freund's adjuvant was used as a positive control) as follows: • Group 1: […] of Ova with CFA/IFA (Positive control) • Group 2: 50 μg of Ova • Group 3: 50 μg of Ova and 100 ng of αGalCer • Group 4: 50 μg of Ova and 100 ng of PBS-11 • Group 5: 50 μg of Ova and 100 ng of PBS-14 • Group 6: 50 μg of Ova and 100 ng of PBS-57 • Group 7: 50 μg of Ova and 100 ng of PBS-96 At 14 days post-injection, blood samples were collected and ELISAs for IgG1 and IgG2a were performed using mouse monoclonal antibodies specific for OVA isotype IgG1 or IgG2a. The results are shown as the titer of the antibody in peripheral blood in ng/ml. The results for IgG1 are depicted in FIG. 11 and those for IgG2a are depicted in FIG. 12.
# [3] = Example 6 Experiment A, FIG. 9, 50 μg Ova with 1 μg adjuvant
# [4] = Example 6 Experiment B, FIG. 10, 50 μg Ova with 100 ng adjuvant
Molecule,"percentage of OVA specific CD8+ T cells (SIINFEKL pentamer) [1, 3]",percentage of specific lysis of the target cells by CD8+ T cells [2],"percentage of OVA specific CD8+ T cells (SIINFEKL pentamer) [1, 4]",specific lysis of Ova-specific target cells in blood [2],average Ova-specific cytotoxic response (percent specific lysis) [2] [%],average OVA-specific cytotoxic response (percent specific lysis) [2] [%],enhancement of the CD8+ T cell response at low doses (specific lysis) [2],OVA specific IgG2a titer in peripheral blood (OVA-specific IgG2a)
"CCCCCCCCCCCCCCCCCCCCCCCCCC(=O)N[C@@H](CO[C@H]1O[C@H](CO)[C@H](O)[C@H](O)[C@H]1O)[C@H](O)[C@H](O)CCCCCCCCCCCCCC [αGalCer, α-galactosyceramide, reference compound]",not as effective,indistinguishable from the controls,,,,,,
CCCCCCCCCCCCCCCCCCCCCCCC(=O)N[C@@H](CO[C@H]1O[C@H](CNC(C)=O)[C@H](O)[C@H](O)[C@H]1O)[C@H](O)[C@H](O)CCCCCCCCCCCCCC [PBS-96],enhanced the percentage of OVA specific CD8+ T cells,,surprisingly much better at enhancing the CD8+ T cell response,resulted in cytotoxic lysis of Ova-specific target cells,89.2±10.3,50.29±42.6,unexpectedly better than other adjuvants,enhanced the OVA specific IgG2a titer about as well as Freund's adjuvant and much better than PBS-57
CCCCCCCCCCCCCCCCCCCCCCCCCC(=O)N[C@@H](CO[C@H]1O[C@H](CNC(C)=O)[C@H](O)[C@H](O)[C@H]1O)[C@H](O)[C@H](O)CCCCCCCCCCCCCC [PBS-14],enhanced the percentage of OVA specific CD8+ T cells,,surprisingly much better at enhancing the CD8+ T cell response,resulted in cytotoxic lysis of Ova-specific target cells,83.3±6.1,52.07±29.56,unexpectedly better than other adjuvants,enhanced the OVA specific IgG2a titer about as well as Freund's adjuvant and much better than PBS-57
"CCCCCCCC/C=C\CCCCCCCCCCCCCC(=O)N[C@@H](CO[C@H]1O[C@H](CNC(C)=O)[C@H](O)[C@H](O)[C@H]1O)[C@H](O)[C@H](O)CCCCCCCCCCCCCC [PBS-57, reference compound]",enhanced the percentage of OVA specific CD8+ T cells,indistinguishable from the controls,,,88.1±6.2,56.11±13.34,,
"CCCCCCCCCCCCCCCCCCCCCCCCCC(=O)N[C@@H](CO[C@H]1O[C@H](CNC(=O)CCCC[C@@H]2SC[C@@H]3NC(=O)N[C@@H]32)[C@H](O)[C@H](O)[C@H]1O)[C@H](O)[C@H](O)CCCCCCCCCCCCCC [PBS-11, reference compound]",not as effective,indistinguishable from the controls,,did not result in specific lysis of cells,,,,
"ovalbumin (protein, UniProt P01012 2-386, looked up, nominal antigen, Ovalbumin grade VII, Sigma) Ovalbumin: GSIGAASMEFCFDVFKELKVHHANENIFYCPIAIMSALAMVYLGAKDSTRTQINKVVRFDKLPGFGDSIEAQCGTSVNVHSSLRDILNQITKPNDVYSFSLASRLYAEERYPILPEYLQCVKELYRGGLEPINFQTAADQARELINSWVESQTNGIIRNVLQPSSVDSQTAMVLVNAIVFKGLWEKAFKDEDTQAMPFRVTEQESKPVQMMYQIGLFRVASMASEKMKILELPFASGTMSMLVLLPDEVSGLEQLESIINFEKLTEWTSSNVMEERKIKVYLPRMKMEEKYNLTSVLMAMGITDVFSSSANLSGISSAESLKISQAVHAAHAEINEAGREVVGSAEAGVDAASVSEEFRADHPFLFCIKHIATNAVLFFGRCVSP",,,,,11.8±14.4,1.60±14.33,,
